Results taken from PMC10382584, “Macrocyclization of linear molecules by deep learning to facilitate macrocyclic drug candidates discovery” (Nature Communications, 2023).

How the values were obtained:
Assay in all cases: biochemical
Parameters in all cases: DiscoveRx KINOMEscan competition binding, percent of DMSO control signal at 100 nM
Details in all cases: read-out: Fig. 4a / Percent Control / Compound 1; percent of DMSO control, competition binding
MAP3K2 = MAP3K2 (Homo sapiens, UniProt Q9Y2U5)
[1] = target: T1, JAK2(JH1domain-catalytic) (Homo sapiens, UniProt O60674)
T1 construct: JH1domain-catalytic

HIPK2 = HIPK2 (Homo sapiens, UniProt Q9H2X6)
CDK8 = CDK8 (Homo sapiens, UniProt P49336)
Chain of CDK8 (P49336 whole entry): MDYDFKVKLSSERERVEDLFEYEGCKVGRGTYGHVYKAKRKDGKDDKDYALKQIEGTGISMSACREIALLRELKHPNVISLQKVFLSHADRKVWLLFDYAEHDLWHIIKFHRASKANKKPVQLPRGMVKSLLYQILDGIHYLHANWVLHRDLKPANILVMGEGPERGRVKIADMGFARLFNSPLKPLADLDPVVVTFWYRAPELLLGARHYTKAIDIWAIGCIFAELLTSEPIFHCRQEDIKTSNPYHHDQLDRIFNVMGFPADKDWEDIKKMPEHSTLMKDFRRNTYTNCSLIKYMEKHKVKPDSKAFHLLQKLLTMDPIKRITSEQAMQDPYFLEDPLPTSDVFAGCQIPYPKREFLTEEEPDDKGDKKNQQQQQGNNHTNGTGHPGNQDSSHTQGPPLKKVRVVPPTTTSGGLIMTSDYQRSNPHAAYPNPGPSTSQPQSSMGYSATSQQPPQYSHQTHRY

IRAK3 = IRAK3 (Homo sapiens, UniProt Q9Y616)
Chain of IRAK3 (Q9Y616 whole entry): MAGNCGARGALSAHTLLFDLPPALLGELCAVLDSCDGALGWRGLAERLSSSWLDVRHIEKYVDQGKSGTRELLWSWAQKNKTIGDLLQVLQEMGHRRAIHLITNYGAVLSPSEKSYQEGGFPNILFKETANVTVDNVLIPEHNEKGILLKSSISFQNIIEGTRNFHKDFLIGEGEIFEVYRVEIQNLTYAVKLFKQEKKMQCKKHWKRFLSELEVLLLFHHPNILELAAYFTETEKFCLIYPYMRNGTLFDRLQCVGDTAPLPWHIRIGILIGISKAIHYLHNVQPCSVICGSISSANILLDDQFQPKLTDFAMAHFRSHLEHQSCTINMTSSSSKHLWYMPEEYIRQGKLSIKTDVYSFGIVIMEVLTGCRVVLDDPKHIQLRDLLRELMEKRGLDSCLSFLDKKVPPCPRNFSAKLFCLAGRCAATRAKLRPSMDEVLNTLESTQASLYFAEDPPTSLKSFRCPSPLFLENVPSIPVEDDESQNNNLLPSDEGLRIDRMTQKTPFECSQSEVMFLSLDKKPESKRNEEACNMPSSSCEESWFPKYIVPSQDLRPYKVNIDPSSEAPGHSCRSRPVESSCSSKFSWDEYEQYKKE

JNK2 = target: T2, JNK2 (Homo sapiens, UniProt P45984)
T2 construct: gene MAPK9
T2 sequence (P45984 whole entry): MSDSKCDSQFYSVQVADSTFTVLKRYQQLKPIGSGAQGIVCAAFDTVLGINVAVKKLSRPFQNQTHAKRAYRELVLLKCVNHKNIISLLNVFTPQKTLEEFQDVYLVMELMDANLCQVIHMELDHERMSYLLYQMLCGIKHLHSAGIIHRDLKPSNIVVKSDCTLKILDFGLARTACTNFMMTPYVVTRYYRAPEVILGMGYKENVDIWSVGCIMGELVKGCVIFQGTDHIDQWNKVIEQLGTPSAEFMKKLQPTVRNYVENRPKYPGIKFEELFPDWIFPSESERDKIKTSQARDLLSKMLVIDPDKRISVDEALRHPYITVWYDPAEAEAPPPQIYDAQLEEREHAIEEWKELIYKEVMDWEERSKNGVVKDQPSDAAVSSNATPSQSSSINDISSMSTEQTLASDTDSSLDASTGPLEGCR

MARK4 = MARK4 (Homo sapiens, UniProt Q96L34)
HPK1 = target: T3, HPK1 (Homo sapiens, UniProt Q92918)
T3 construct: gene MAP4K1
T3 sequence (Q92918 whole entry): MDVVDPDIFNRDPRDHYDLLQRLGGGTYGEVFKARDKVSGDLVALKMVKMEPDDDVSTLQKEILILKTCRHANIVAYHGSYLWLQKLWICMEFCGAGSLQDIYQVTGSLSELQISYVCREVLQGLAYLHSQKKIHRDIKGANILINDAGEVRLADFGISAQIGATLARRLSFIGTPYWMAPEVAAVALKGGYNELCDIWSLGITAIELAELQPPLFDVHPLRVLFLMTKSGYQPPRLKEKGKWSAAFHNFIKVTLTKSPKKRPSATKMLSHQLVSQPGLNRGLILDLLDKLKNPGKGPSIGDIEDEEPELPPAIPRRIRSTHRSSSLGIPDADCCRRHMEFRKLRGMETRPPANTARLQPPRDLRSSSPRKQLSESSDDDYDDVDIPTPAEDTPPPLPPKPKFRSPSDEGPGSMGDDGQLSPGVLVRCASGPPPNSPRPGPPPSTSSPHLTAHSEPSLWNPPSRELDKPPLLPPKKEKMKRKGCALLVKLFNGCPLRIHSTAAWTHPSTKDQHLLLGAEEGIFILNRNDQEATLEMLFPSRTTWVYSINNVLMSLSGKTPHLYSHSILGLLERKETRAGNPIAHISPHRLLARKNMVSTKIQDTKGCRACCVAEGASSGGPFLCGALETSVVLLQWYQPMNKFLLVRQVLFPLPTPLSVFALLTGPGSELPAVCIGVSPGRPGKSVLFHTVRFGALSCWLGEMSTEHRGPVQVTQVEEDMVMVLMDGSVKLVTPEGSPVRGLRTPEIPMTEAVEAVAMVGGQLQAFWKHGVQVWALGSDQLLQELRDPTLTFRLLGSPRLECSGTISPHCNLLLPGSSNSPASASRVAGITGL

PIM3 = PIM3 (Homo sapiens, UniProt Q86V86)
MAP4K4 = MAP4K4 (Homo sapiens, UniProt O95819)
BRAF = BRAF (Homo sapiens, UniProt P15056)
TNK2 = TNK2 (Homo sapiens, UniProt Q07912)
Chain of TNK2 (Q07912 whole entry): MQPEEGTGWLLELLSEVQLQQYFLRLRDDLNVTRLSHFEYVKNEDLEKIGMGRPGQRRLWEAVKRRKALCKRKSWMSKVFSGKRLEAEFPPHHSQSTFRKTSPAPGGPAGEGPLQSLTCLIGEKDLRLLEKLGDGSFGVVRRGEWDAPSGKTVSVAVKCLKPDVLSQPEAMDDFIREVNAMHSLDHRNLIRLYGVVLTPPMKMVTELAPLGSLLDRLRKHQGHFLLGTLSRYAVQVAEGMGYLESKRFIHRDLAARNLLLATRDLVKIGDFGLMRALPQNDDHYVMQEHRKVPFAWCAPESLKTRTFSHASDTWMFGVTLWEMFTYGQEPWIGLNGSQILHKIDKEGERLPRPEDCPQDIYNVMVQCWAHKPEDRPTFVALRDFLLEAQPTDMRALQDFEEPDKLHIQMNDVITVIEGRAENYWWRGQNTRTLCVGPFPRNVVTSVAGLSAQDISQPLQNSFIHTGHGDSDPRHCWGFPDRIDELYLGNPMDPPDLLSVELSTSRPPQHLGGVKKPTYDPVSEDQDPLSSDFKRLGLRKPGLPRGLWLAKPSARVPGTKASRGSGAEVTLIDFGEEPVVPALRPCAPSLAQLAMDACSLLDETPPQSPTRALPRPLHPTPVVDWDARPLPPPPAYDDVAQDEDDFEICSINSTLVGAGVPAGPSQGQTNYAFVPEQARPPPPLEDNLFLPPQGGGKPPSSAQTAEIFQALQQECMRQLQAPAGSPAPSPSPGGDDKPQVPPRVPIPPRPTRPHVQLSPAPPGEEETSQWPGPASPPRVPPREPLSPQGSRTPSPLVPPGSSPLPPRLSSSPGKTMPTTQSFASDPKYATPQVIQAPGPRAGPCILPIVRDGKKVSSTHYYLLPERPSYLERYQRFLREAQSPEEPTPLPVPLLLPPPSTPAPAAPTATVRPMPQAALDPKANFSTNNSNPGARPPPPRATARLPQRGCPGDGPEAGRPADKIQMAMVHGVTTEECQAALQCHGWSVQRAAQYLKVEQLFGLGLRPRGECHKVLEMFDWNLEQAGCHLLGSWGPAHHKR

YANK3 = target: T4, YANK3 (Homo sapiens, UniProt Q86UX6)
T4 construct: gene STK32C

IGF1R = IGF1R (Homo sapiens, UniProt P08069)
CSNK1A1L = CSNK1A1L (Homo sapiens, UniProt Q8N752)
Chain of CSNK1A1L (Q8N752 whole entry): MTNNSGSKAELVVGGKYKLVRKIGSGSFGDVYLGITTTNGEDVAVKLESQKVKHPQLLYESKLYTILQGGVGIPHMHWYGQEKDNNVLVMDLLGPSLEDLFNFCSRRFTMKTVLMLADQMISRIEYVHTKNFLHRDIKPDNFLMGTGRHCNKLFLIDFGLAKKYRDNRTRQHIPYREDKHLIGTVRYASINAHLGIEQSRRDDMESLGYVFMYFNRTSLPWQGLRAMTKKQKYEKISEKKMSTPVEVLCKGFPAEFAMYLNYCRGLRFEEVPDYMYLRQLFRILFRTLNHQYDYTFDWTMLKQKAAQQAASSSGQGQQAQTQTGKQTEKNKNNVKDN

MLK2 = target: T5, MLK2 (Homo sapiens, UniProt Q02779)
T5 construct: gene MAP3K10

[2] = target: T6, TYK2(JH2domain-pseudokinase) (Homo sapiens, UniProt P29597)
T6 construct: JH2domain-pseudokinase

AXL = AXL (Homo sapiens, UniProt P30530)
NEK11 = NEK11 (Homo sapiens, UniProt Q8NG66)
TIE1 = TIE1 (Homo sapiens, UniProt P35590)
NEK2 = NEK2 (Homo sapiens, UniProt P51955)
[3] = target: T7, ABL1(H396P)-phosphorylated (Homo sapiens, UniProt P00519, H396P)
T7 construct: phosphorylated

YANK2 = target: T8, YANK2 (Homo sapiens, UniProt Q9NY57)
T8 construct: gene STK32B

[4] = target: T9, RPS6KA4(Kin.Dom.1-N-terminal) (Homo sapiens, UniProt O75676)
T9 construct: Kin.Dom.1-N-terminal

KIT(D816V) = KIT(D816V) (Homo sapiens, UniProt P10721, D816V)
Chain of KIT(D816V) (P10721 whole entry D816V): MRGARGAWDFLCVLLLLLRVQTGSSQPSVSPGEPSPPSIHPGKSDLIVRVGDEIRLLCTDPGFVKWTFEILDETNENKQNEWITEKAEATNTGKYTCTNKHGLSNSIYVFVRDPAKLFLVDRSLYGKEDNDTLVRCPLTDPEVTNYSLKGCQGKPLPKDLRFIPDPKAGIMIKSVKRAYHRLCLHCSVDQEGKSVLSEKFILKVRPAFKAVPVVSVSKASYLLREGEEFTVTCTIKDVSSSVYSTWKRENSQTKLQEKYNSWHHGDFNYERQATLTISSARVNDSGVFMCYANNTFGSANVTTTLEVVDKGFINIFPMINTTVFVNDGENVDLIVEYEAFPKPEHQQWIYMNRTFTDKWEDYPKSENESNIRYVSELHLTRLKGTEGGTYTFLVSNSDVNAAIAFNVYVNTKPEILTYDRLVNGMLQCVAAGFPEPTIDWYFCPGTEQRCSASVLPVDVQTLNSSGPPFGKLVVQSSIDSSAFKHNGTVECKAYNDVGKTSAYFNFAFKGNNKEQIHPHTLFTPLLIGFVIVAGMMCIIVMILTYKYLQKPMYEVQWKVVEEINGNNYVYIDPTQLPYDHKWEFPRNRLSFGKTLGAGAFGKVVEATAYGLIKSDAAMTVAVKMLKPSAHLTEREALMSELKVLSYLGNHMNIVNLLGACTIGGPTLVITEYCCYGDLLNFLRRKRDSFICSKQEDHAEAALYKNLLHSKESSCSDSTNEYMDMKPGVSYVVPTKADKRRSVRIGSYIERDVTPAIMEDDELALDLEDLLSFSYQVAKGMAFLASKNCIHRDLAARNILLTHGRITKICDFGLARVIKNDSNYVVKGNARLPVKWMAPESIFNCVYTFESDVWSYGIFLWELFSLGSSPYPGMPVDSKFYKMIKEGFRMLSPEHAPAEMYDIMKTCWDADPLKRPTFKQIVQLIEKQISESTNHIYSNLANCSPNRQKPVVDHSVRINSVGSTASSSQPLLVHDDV
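Further: KINOMEscan kinase panel binding assay, signal normalized between DMSO as 100% and a positive control compound as 0%.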

Molecule Cc1cnc2nc1Nc1cccc(c1)COCc1cc(ccc1OCCN1CCCC1)N2 [Compound 1] has a remaining binding at 0.1 µM (MAP3K2) of 50%, a remaining binding at 0.1 µM [1] of 0% and a remaining binding at 0.1 µM (HIPK2) of 100%. For the same molecule, the remaining binding at 0.1 µM (CDK8) was 100%, the remaining binding at 0.1 µM (IRAK3) was 53% and the remaining binding at 0.1 µM (JNK2) was 50%. The remaining binding at 0.1 µM (MARK4) was 77%, the remaining binding at 0.1 µM (HPK1) was 72% and the remaining binding at 0.1 µM (PIM3) was 100%. The remaining binding at 0.1 µM (MAP4K4) was 82%, the remaining binding at 0.1 µM (BRAF) was 93% and the remaining binding at 0.1 µM (TNK2) was 86%. The remaining binding at 0.1 µM (YANK3) was 99%, the remaining binding at 0.1 µM (IGF1R) was 91% and the remaining binding at 0.1 µM (CSNK1A1L) was 61%. The remaining binding at 0.1 µM (MLK2) was 98%, the remaining binding at 0.1 µM [2] was 64% and the remaining binding at 0.1 µM (AXL) was 90%. The remaining binding at 0.1 µM (NEK11) was 69%, the remaining binding at 0.1 µM (TIE1) was 94% and the remaining binding at 0.1 µM (NEK2) was 83%. The remaining binding at 0.1 µM [3] was 83%, the remaining binding at 0.1 µM (YANK2) was 95% and the remaining binding at 0.1 µM [4] was 100%. The remaining binding at 0.1 µM (KIT(D816V)) was 89%.
